This assay addresses PD-1/PD-L1 protein/protein interaction (Homo sapiens (Human), UniProt Q9NZQ7). Description: PD-1/PD-L1 Homogeneous Time-Resolved Fluorescence (HTRF) binding assay. The settings on record: recombinant human PD-L1 (19-238) His-tag 10 nM, human PD-1 (25-167) Fc tag 3 nM, 25° C., PBS pH 7.4. The method, then:
Example A. PD-1/PD-L Homogeneous Time-Resolved Fluorescence (HTRF) Binding Assay
The assays were conducted in a standard black 384-well polystyrene plate with a final volume of 20 μL. Inhibitors were first serially diluted in DMSO and then added to the plate wells before the addition of other reaction components. The final concentration of DMSO in the assay was 1%. The assays were carried out at 25° C. in the PBS buffer (pH 7.4) with 0.05% Tween-20 and 0.1% BSA. Recombinant human PD-L1 protein (19-238) with a His-tag at the C-terminus was purchased from AcroBiosystems (PD1-H5229). Recombinant human PD-1 protein (25-167) with Fc tag at the C-terminus was also purchased from AcroBiosystems (PD1-H5257). PD-L1 and PD-1 proteins were diluted in the assay buffer and 10 μL was added to the plate well. Plates were centrifuged and proteins were preincubated with inhibitors for 40 minutes. The incubation was followed by the addition of 10 μL of HTRF detection buffer supplemented with Europium cryptate-labeled anti-human IgG (PerkinElmer-AD0212) specific for Fe and anti-His antibody conjugated to SureLight®-Allophycocyanin (APC, PerkinElmer-AD0059H). After centrifugation, the plate was incubated at 25° C. for 60 min. before reading on a PHERAstar FS plate reader (665 nm/620 nm ratio). Final concentrations in the assay were—3 nM PD1, 10 nM PD-L1, 1 nM europium anti-human IgG and 20 nM anti-His-Allophycocyanin.IC50 determination was performed by fitting the curve of percent control activity versus the log of the inhibitor concentration using the GraphPad Prism 5.0 software.

pIC50: −log10 of the molar value.

Sequence of PD-1/PD-L1 protein/protein interaction (Q9NZQ7 19-238): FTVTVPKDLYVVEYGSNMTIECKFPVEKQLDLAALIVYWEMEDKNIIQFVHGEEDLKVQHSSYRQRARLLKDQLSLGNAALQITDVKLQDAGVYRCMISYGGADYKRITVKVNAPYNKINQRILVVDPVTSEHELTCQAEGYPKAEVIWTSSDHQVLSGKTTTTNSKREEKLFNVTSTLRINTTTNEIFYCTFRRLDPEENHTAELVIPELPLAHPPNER

For the compound `Cc1c(-c2ccc3c(c2)OCCO3)cccc1-c1nc2cc(CNCCO)cc(C)c2o1` [Example 16, 2-[({2-[3-(2,3-dihydro-1,4-benzodioxin-6-yl)-2-methylphenyl]-7-methyl-1,3-benzoxazol-5-yl}methyl)amino]ethanol], the pIC50 was no less than 8.00.
Under `Cc1c(-c2ccccc2)cccc1-c1nc2cc(CNCCO)c(OCc3ccccn3)cc2o1` [Example 30, 2-({[2-(2-methylbiphenyl-3-yl)-6-(pyridin-2-ylmethoxy)-1,3-benzoxazol-5-yl]methyl}amino)ethanol] stands no less than 8.00; under `Cc1cc(CNCCO)cc2nc(-c3cccc(-c4ccccc4)c3C#N)oc12` [Example 14, 3-(5-{[(2-hydroxyethyl)amino]methyl}-7-methyl-1,3-benzoxazol-2-yl)biphenyl-2-carbonitrile], no less than 8.00; under `Cc1c(-c2ccccc2)cccc1-c1nc2cc(CNCCO)ccc2o1` [Example 8, 2-({[2-(2-methylbiphenyl-3-yl)-1,3-benzoxazol-5-yl]methyl}amino)ethanol], no less than 8.00.
The value for `Cc1c(-c2ccccc2)cccc1-c1cc2nc(CNCCO)cnc2o1` [Example 24, 2-({[6-(2-methylbiphenyl-3-yl)furo[2,3-b]pyrazin-2-yl]methyl}amino)ethanol] was 7.00 to 8.00.
`Cc1c(-c2ccccc2)cccc1-c1nc2cc(CNCCO)c(OCc3cccc(C#N)c3)cc2o1` [Example 29, 3-({[5-{[(2-hydroxyethyl)amino]methyl}-2-(2-methylbiphenyl-3-yl)-1,3-benzoxazol-6-yl]oxy}methyl)benzonitrile]: the negative-log IC50 (pIC50) was 7.00 to 8.00.
In the case of `Cc1c(-c2ccccc2)cccc1-c1cc2cc(CNCCO)nc(C)c2o1` [Example 5, 2-({[7-methyl-2-(2-methylbiphenyl-3-yl)furo[2,3-c]pyridin-5-yl]methyl}amino)ethanol], the pIC50 was 7.00 to 8.00.
Consider `Cc1cc(CN2CCCC[C@H]2C(=O)O)cc2nc(-c3cccc(-c4ccc5c(c4)OCCO5)c3C#N)oc12` [Example 17, (2S)-1-({2-[2-cyano-3-(2,3-dihydro-1,4-benzodioxin-6-yl)phenyl]-7-methyl-1,3-benzoxazol-5-yl}methyl)piperidine-2-carboxylic Acid], for which the pIC50 is 7.00 to 8.00.
On to `Cc1c(-c2nc3cc(CNCCO)c(OCC#N)cc3o2)cccc1-c1ccccc1F` [Example 39, [(2-(2′-fluoro-2-methylbiphenyl-3-yl)-5-{[(2-hydroxyethyl)amino]methyl}-1,3-benzoxazol-6-yl)oxy]acetonitrile], for which the pIC50 is no less than 8.00.
As for `Cc1c(-c2ccccc2)cccc1-c1nc2cc(CN3CCCC[C@H]3C(=O)O)ccc2s1` [Example 19, (2S)-1-{[2-(2-methylbiphenyl-3-yl)-1,3-benzothiazol-5-yl]methyl}piperidine-2-carboxylic Acid], the negative logarithm of the IC50 (pIC50) is 6.00 to 7.00.
Take `Cc1c(-c2ccccc2)cccc1-c1nc2cc(CN3CCCC[C@H]3C(=O)O)cc(C)c2o1` [Example 11, (2S)-1-{[7-methyl-2-(2-methylbiphenyl-3-yl)-1,3-benzoxazol-5-yl]methyl}piperidine-2-carboxylic Acid]: the negative logarithm of the IC50 (pIC50) was no less than 8.00.
On to `Cc1c(-c2ccccc2)cccc1-c1cc2ccc(CN3CCCC[C@H]3C(=O)O)nc2o1` [Example 2, (2S)-1-{[2-(2-methylbiphenyl-3-yl)furo[2,3-b]pyridin-6-yl]methyl}piperidine-2-carboxylic Acid], for which the pIC50 is 6.00 to 7.00.
The value for `Cc1c(-c2ccccc2)cccc1-c1nc2cc(CNCCO)c(OCCN3CCOCC3)cc2o1` [Example 32, 2-({[2-(2-methylbiphenyl-3-yl)-6-(2-morpholin-4-ylethoxy)-1,3-benzoxazol-5-yl]methyl}amino)ethanol] was no less than 8.00.
`Cc1c(-c2ccccc2)cccc1-c1nc2cc(CNCCO)c(OCC#N)cc2o1` [Example 27, {[5-{[(2-hydroxyethyl)amino]methyl}-2-(2-methylbiphenyl-3-yl)-1,3-benzoxazol-6-yl]oxy}acetonitrile]: the pIC50 was no less than 8.00.
For `Cc1c(-c2ccc3c(c2)OCCO3)cccc1-c1nc2cc(CN3CCCC[C@H]3C(=O)O)cc(C)c2o1` [Example 15, (2S)-1-({2-[3-(2,3-dihydro-1,4-benzodioxin-6-yl)-2-methylphenyl]-7-methyl-1,3-benzoxazol-5-yl}methyl)piperidine-2-carboxylic Acid], the negative logarithm of the IC50 (pIC50) is 7.00 to 8.00.
Turning to `Cc1c(-c2ccccc2)cccc1-c1nc2cc(CN3CCCC[C@H]3C(=O)O)ccc2o1` [Example 7, (2S)-1-{[2-(2-methylbiphenyl-3-yl)-1,3-benzoxazol-5-yl]methyl}piperidine-2-carboxylic Acid], the pIC50 was 7.00 to 8.00.
Turning to `Cc1c(-c2ccccc2)cccc1-c1nc2cc(CNCCO)ncc2o1` [Example 33, 2-({[2-(2-methylbiphenyl-3-yl)[1,3]oxazolo[5,4-c]pyridin-6-yl]methyl}amino)ethanol], the negative-log IC50 (pIC50) was 7.00 to 8.00.
In the case of `Cc1c(-c2ccccc2)cccc1-c1nc2cc(CN3CCCC[C@H]3C(=O)O)c(OCCCC#N)cc2o1` [Example 28, (2S)-1-{[6-(3-cyanopropoxy)-2-(2-methylbiphenyl-3-yl)-1,3-benzoxazol-5-yl]methyl}piperidine-2-carboxylic Acid], the pIC50 is no less than 8.00.
The value for `Cc1c(-c2ccccc2)cccc1-c1nc2c(C)cc(CN3CCCC[C@H]3C(=O)O)cc2s1` [Example 22, (2S)-1-{[4-methyl-2-(2-methylbiphenyl-3-yl)-1,3-benzothiazol-6-yl]methyl}piperidine-2-carboxylic Acid] was 7.00 to 8.00; that for `Cc1cc(CN2CCCC[C@H]2C(=O)O)cc2nc(-c3cccc(-c4ccccc4)c3C#N)oc12` [Example 13, (2S)-1-{[2-(2-cyanobiphenyl-3-yl)-7-methyl-1,3-benzoxazol-5-yl]methyl}piperidine-2-carboxylic Acid] was 7.00 to 8.00; that for `Cc1c(-c2ccccc2)cccc1-c1cc2cc(CN3CCCC[C@H]3C(=O)O)nc(C)c2o1` [Example 6, (2S)-1-{[7-methyl-2-(2-methylbiphenyl-3-yl)furo[2,3-c]pyridin-5-yl]methyl}piperidine-2-carboxylic Acid] was 7.00 to 8.00.
For the compound `Cc1c(-c2ccccc2)cccc1-c1cc2nc(CN3CCCC[C@H]3C(=O)O)cnc2o1` [Example 25, (2S)-1-{[6-(2-methylbiphenyl-3-yl)furo[2,3-b]pyrazin-2-yl]methyl}piperidine-2-carboxylic Acid], the negative-log IC50 (pIC50) was 6.00 to 7.00.
As to `Cc1c(-c2ccccc2)cccc1-c1nc2ccc(CN3CCCC[C@H]3C(=O)O)cc2o1` [Example 38, (2S)-1-{[2-(2-methylbiphenyl-3-yl)-1,3-benzoxazol-6-yl]methyl}piperidine-2-carboxylic Acid], the negative logarithm of the IC50 (pIC50) is 7.00 to 8.00.
Take `Cc1c(C2=CCCCC2)cccc1-c1nc2cc(CNCCO)c(OCC#N)cc2o1` [Example 40, [(2-(3-cyclohex-1-en-1-yl-2-methylphenyl)-5-{[(2-hydroxyethyl)amino]methyl}-1,3-benzoxazol-6-yl)oxy]acetonitrile]: the negative logarithm of the IC50 (pIC50) is 7.00 to 8.00.
Regarding `Cc1c(-c2ccc3c(c2)OCCO3)cccc1-c1nc2cc(CN3CCCC[C@H]3C(=O)O)c(OCC#N)cc2o1` [Example 36, (2S)-1-({6-(cyanomethoxy)-2-[3-(2,3-dihydro-1,4-benzodioxin-6-yl)-2-methylphenyl]-1,3-benzoxazol-5-yl}methyl)piperidine-2-carboxylic Acid], the pIC50 was no less than 8.00.

These data come from patent US11572366B2, “Heterocyclic compounds as immunomodulators” (Incyte Corporation, priority 2015, dated 2023).
